This is an account of results in patent EP4596561A1, “PHOSPHORUS-CONTAINING COMPOUND, PHARMACEUTICAL COMPOSITION AND USE THEREOF” (Suzhou Genhouse Bio Co., Ltd., priority 2022, dated 2024).

Read-outs that look alike come from different tables or passages of the source.

A short description of series [1]: Stability test in liver microsomes. The conditions noted are these: mouse liver microsomes, 0.5 mg/mL, 1.0 µM substrate. The series is classed as in vitro ADME, CD-1 mouse. As for the experimental part: Phase I metabolic stability of the test compounds in liver microsomes of CD-1 mice, Sprague-Dawley rats, and humans was assessed.
The animal and human liver microsomes used in the test system were purchased from Xenotech, Corning, or other qualified suppliers and stored in a freezer at a temperature below -60 °C prior to use. The information of the animal and human liver microsomes used was as follows:
The test samples and the reference compounds were separately incubated with animal and human liver microsomes at 37±1 °C for a period of incubation time of up to 60 min. The samples were taken out at the indicated time points, and the reaction was stopped with acetonitrile or another organic solvent containing an internal standard. After centrifugation, the resulting supernatants were assayed by the liquid chromatography-tandem mass spectrometry (LC-MS/MS) method.
Microsomes of each species were diluted into a 2× working solution with a 100 mM potassium phosphate buffer. […]
Incubation was performed in a 96-well plate. Eight incubation plates were prepared and designated T0, T5, T15, T30, T45, T60, Blank60, and NCF60, respectively. The first 6 plates corresponded to reaction time points of 0 min, 5 min, 15 min, 30 min, 45 min, and 60 min, respectively. No test sample or reference compound was added to the Blank60 plate, and samples were taken after 60 min of incubation. In the NCF60 plate, incubation was performed for 60 min using the potassium phosphate buffer instead of the NADPH regeneration system solution. Three replicates were made for samples in all conditions.
The microsomes and the test sample or reference compound were mixed, and then the incubation plates Blank60, T5, T15, T30, T45, and T60 except for T0 and NCF60 were placed in a 37 °C water bath for pre-incubation for about 10 min. In the incubation plate T0, a stop solution was first added, followed by the addition of the NADPH regeneration system working solution, and 98 µL of the potassium phosphate buffer was added to each sample well of the incubation plate NCF60 to initiate the reaction. After the pre-incubation of the incubation plates Blank60, T5, T15, T30, T45, and T60 was completed, 98 µL of the NADPH regeneration system working solution was added to each sample well to initiate the reaction. The reaction temperature was 37±1 °C, the final volume of the reaction was 200 µL, and the reaction system included 0.5 mg/mL microsomes, 1.0 µM substrate, 1 mM NADP, 6 mM ISO, and 1 unit/mL IDH.
At 5 min, 15 min, 30 min, 45 min, and 60 min, a cold stop solution containing an internal standard was added to the reaction plate to stop the reaction.
All the reaction plates after the reaction was stopped were shaken well and centrifuged at 3220× g at 4 °C for 20 min. After the supernatant was diluted at a certain ratio, LC-MS/MS analysis was performed.
Sample analysis was performed by the liquid chromatography-tandem mass spectrometry (LC-MS/MS) method without standard curves and quality control samples. Semi-quantitative determination was performed according to the ratio of the analyte peak area to the internal standard peak area. The retention times of the analyte and internal standard, the chromatogram acquisition, and chromatogram integration were processed using the Analyst software (Sciex, Framingham, Massachusetts, USA).
According to the well stir model, the hepatic intrinsic clearance and hepatic clearance can be converted through the following formula. CL(liver) = (CLint(liver)×Qh)/(CLint(liver)+Qh) [formula]
(Microsomes from liver hold many membrane-bound enzymes, among them those of drug oxidation.)

Series [2] is described as follows: Pharmacokinetic test in mice (low dose). The series is classed as in vivo, Balb/c mice. The following applies: mouse, mice; for AUC(0-t): read-out: AUClast; for clearance: read-out: Cl (converted); for half-life: read-out: T1/2 (converted); for bioavailability: PO 10 mg/kg vs IV 2 mg/kg, read-out: F%; for Cmax: read-out: Cmax.
Series [3] can be described thus: Pharmacokinetic test in rats. In kind it is in vivo. The following applies: rat, plasma, SD rats; for bioavailability: PO 10 mg/kg vs IV 2 mg/kg. As for the experimental part: In this experimental example, the pharmacokinetic behavior of the test compounds after administration by intravenous injection (IV) and oral gavage (PO) in SD rats was tested. Preparation of formulations for administration referred to the low-dose pharmacokinetic test in mice.
On the day of administration, rats were weighed for actual body weight, and the administration volume was calculated. Each compound was tested in two groups with 3 rats in each group; one group was subjected to administration by single intravenous injection, and the other group was subjected to administration by single gavage. The whole blood samples were collected via the jugular vein at prescribed time points (0.25 h, 0.5 h, 1 h, 2 h, 4 h, 8 h, and 24 h after administration). After the blood sample collection, the samples were immediately transferred to labeled commercial sample tubes containing K2-EDTA (0.85-1.15 mg), followed by centrifugation (3200× g, 4 °C, 10 min) and plasma collection. The plasma was transferred to a pre-cooled centrifuge tube, frozen in dry ice, and then stored in an ultra-low temperature freezer at -60 °C or lower until the LC-MS/MS analysis was performed.
Plasma concentrations were determined by the LC-MS/MS method. Plasma drug concentration data for the compounds were processed using a non-compartmental model in the WinNonlin Version 6.3 (Pharsight, Mountain View, CA) pharmacokinetic software. The relevant pharmacokinetic parameters were calculated by a linear-log trapezoidal method.

A word on the MRT: it is the average time that molecules of a dose stay in the body. By Cmax is commonly meant the highest concentration seen after dosing. For the compound `CP(C)(=O)c1ccc2c(c1)c1ccccc1n2-c1ccc(C(F)(F)F)cc1` [Example 1], in series [1], the half-life at 1 µM is greater than 2.42 h. For the same compound, the MRT in series [2] (in vivo, IV 2 mg/kg) turned out to be 6.1 h; in series [2] (in vivo, PO 10 mg/kg) it was 6.5 h; in series [3] (IV 2 mg/kg), 46.3 h; in series [3] (PO 10 mg/kg) it was 69.9 h. Further, the AUC(0-t) was found to be 30.7 µM·h in series [2] (in vivo, IV 2 mg/kg); 182 µM·h in series [2] (in vivo, PO 10 mg/kg); 113 µM·h in series [3] (IV 2 mg/kg); 605 µM·h in series [3] (PO 10 mg/kg). For the same compound, the clearance in series [2] (in vivo, IV 2 mg/kg) is 0.17 L/h/kg; in series [3] (IV 2 mg/kg), 0.02 L/h/kg. Moreover, the half-life is 4.2 h in series [2] (in vivo, IV 2 mg/kg); 3.9 h in series [2] (in vivo, PO 10 mg/kg); 32.4 h in series [3] (IV 2 mg/kg); 66.9 h in series [3] (PO 10 mg/kg). Besides, the results for the bioavailability in series [2] (in vivo) and in series [3] were 118% and 107%, respectively. Further, the Cmax in series [2] (in vivo, PO 10 mg/kg) turned out to be 12.9 µM.

For the compound `CP(C)(=O)c1ccc2c(c1)c1cccnc1n2-c1ccc(C(F)(F)F)cc1` [Example 5], in series [2] (plasma, IV 2 mg/kg), the MRT came to 2.5 h, the AUC(0-t) came to 9.37 µM·h, the clearance is 0.5 L/h/kg and the half-life is 1.8 h. For the same compound, in series [2] (plasma, PO 10 mg/kg), the MRT was 5.3 h, the AUC(0-t) worked out at 155 µM·h, the Cmax came out at 15.5 µM and the half-life was 2.6 h. Further, in series [2] (plasma), the bioavailability came to 318%.

Take `CP(C)(=O)c1ccc2c(Oc3ccc(C(F)(F)F)cc3)cccc2c1` [Example 7]: in series [1], the half-life at 1 µM was greater than 2.42 h. Moreover, in series [2] (in vivo, IV 2 mg/kg), the MRT came to 171 h, the AUC(0-t) was 50.7 µM·h, the clearance was 0.015 L/h/kg and the half-life was 120 h. Moreover, in series [2] (in vivo, PO 10 mg/kg), the MRT worked out at 211 h, the AUC(0-t) is 267 µM·h, the Cmax stood at 12.7 µM and the half-life was 146 h. Besides, the bioavailability in series [2] (in vivo) worked out at 106%. In series [3] (IV 2 mg/kg), this compound gave an AUC(0-t) of 44.5 µM·h, an MRT of 20.5 h, a clearance of 0.12 L/h/kg and a half-life of 15.7 h. Besides, in series [3] (PO 10 mg/kg), the AUC(0-t) was determined as 308 µM·h, the MRT turned out to be 28.5 h and the half-life is 19.5 h. For the same compound, the bioavailability in series [3] was 142%.

`Cn1cnc(-c2cc(P(C)(C)=O)cnc2Nc2ccc(C(F)(F)F)cc2)c1` [Example 8] gave a half-life at 1 µM in series [1] greater than 2.42 h. Further, in series [2] (in vivo, IV 2 mg/kg), the MRT was 6.4 h, the AUC(0-t) amounted to 7.94 µM·h, the clearance is 0.6 L/h/kg and the half-life was 5.6 h. Besides, in series [2] (in vivo, PO 10 mg/kg), the MRT turned out to be 47.2 h, the AUC(0-t) worked out at 119 µM·h, the Cmax amounted to 14.6 µM and the half-life is 34.2 h. Also, the bioavailability in series [2] (in vivo) was found to be 300%. In addition, in series [3] (IV 2 mg/kg), the AUC(0-t) is 8.89 µM·h, the MRT worked out at 7.8 h, the clearance was 0.54 L/h/kg and the half-life is 6.2 h. In series [3] (PO 10 mg/kg), this compound gave an AUC(0-t) of 59.3 µM·h, an MRT of 20.6 h and a half-life of 14.7 h. Also, the bioavailability in series [3] is 133%.

Take `CP(C)(=O)c1ccc(Nc2ccc(C(F)(F)F)cc2)c(-c2ccccn2)c1` [Example 10]: the half-life at 1 µM in series [1] was greater than 2.42 h. Further, in series [2] (plasma, IV 2 mg/kg), the MRT worked out at 75 h, the AUC(0-t) was determined as 59.3 µM·h, the clearance is 0.024 L/h/kg and the half-life was 52 h. Besides, in series [2] (plasma, PO 10 mg/kg), the MRT turned out to be 75.6 h, the AUC(0-t) was 290 µM·h, the Cmax was 14.6 µM and the half-life was 28.2 h. Also, the bioavailability in series [2] (plasma) came out at 98%. In series [3] (IV 2 mg/kg), this compound gave an AUC(0-t) of 21.7 µM·h, an MRT of 26.5 h, a clearance of 0.18 L/h/kg and a half-life of 19 h. Moreover, in series [3] (PO 10 mg/kg), the AUC(0-t) was determined as 152 µM·h, the MRT is 25.7 h and the half-life is 17.8 h. In series [3], the bioavailability amounted to 140%.

Regarding `CP(C)(=O)c1ccc(Nc2ccc(C(F)(F)F)cc2)c(-c2ncccn2)c1` [Example 12], the half-life at 1 µM in series [1] was greater than 2.42 h. Moreover, in series [2] (plasma, IV 2 mg/kg), the MRT is 23.4 h, the AUC(0-t) is 58.8 µM·h, the clearance was 0.06 L/h/kg and the half-life was 17.2 h. In addition, in series [2] (plasma, PO 10 mg/kg), the MRT amounted to 34.5 h, the AUC(0-t) is 295 µM·h, the Cmax was found to be 16.1 µM and the half-life is 25.6 h. Besides, the bioavailability in series [2] (plasma) was 100%. For the same compound, in series [3] (IV 2 mg/kg), the AUC(0-t) was 34.9 µM·h, the MRT is 76.3 h, the clearance was 0.07 L/h/kg and the half-life is 54.2 h. In addition, in series [3] (PO 10 mg/kg), the AUC(0-t) turned out to be 114 µM·h, the MRT is 24.9 h and the half-life was 21.8 h. The bioavailability in series [3] came out at 65%.

As for `Cn1cnc(-c2cc(P(C)(C)=O)ccc2Nc2ccc(C(F)(F)F)cc2)c1` [Example 14], the half-life at 1 µM in series [1] is greater than 2.42 h. In series [2] (in vivo, IV 2 mg/kg), the MRT worked out at 26.2 h, the AUC(0-t) was found to be 21.2 µM·h, the clearance is 0.14 L/h/kg and the half-life is 19 h. In series [2] (in vivo, PO 10 mg/kg), the MRT turned out to be 17.8 h, the AUC(0-t) stood at 112 µM·h, the Cmax stood at 8.08 µM and the half-life is 12.3 h. For the same compound, the bioavailability in series [2] (in vivo) worked out at 106%. In series [3] (IV 2 mg/kg), the AUC(0-t) turned out to be 16.9 µM·h, the MRT was found to be 10.2 h, the clearance was 0.28 L/h/kg and the half-life is 8.1 h. In series [3] (PO 10 mg/kg), the AUC(0-t) was 83.2 µM·h, the MRT was determined as 15 h and the half-life is 10.9 h. Also, the bioavailability in series [3] turned out to be 98%.

As to `Cc1ccc(Oc2ccc(C(F)(F)F)cc2)c2ccc(P(C)(C)=O)cc12` [Example 24], the half-life at 1 µM in series [1] came out at 1.98 h. For the same compound, in series [2] (in vivo, IV 2 mg/kg), the AUC(0-t) came out at 22.1 µM·h, the clearance is 0.198 L/h/kg and the half-life is 11 h. For the same compound, the bioavailability in series [2] (in vivo) came to 120%. Also, in series [2] (in vivo, PO 10 mg/kg), the AUC(0-t) was 133 µM·h, the Cmax was 7.82 µM and the half-life was 16.2 h.
